One molecule from patent publication US20050255537A1, “Method for monitoring treatment with a parathyroid hormone” (priority 1999, published 2005) can be followed below.

Assay [1] deals with BSAP and PICP serum levels, NTX urine levels. Description: Example 1 clinical trial of rhPTH(1-34) in postmenopausal women: markers of bone formation and resorption. The assay is classed as in vivo, human. How it is done:
(§1) • Number of Subjects: • rhPTH(1-34): 1093 enrolled, 848 finished. • Placebo: 544 enrolled, 447 finished. • Diagnosis and Inclusion Criteria: Women ages 30 to 85 years, postmenopausal for a minimum of 5 years, with a minimum of one moderate or two mild atraumatic vertebral fractures. • Dosage and Administration: • Test Product (blinded) • rhPTH(1-34): 20 μg/day, given subcutaneously • rhPTH(1-34): 40 μg/day, given subcutaneously • Reference Therapy (blinded) • Placebo study material for injection • Duration of Treatment: • rhPTH(1-34): 17-23 months (excluding 6-month run-in phase) • Placebo: 17-23 months (excluding 6-month run-in phase) • Criteria for Evaluation: Spine x-ray; serum biological markers (calcium, bone-specific alkaline phosphatase, procollagen I carboxy-terminal propeptide); urine markers (calcium, N-telopeptide, free deoxypyridinoline); 1,25-dihydroxyvitamin D; bone mineral density: spine, hip, wrist, and total body: height; population pharmacokinetics; bone biopsy (selected study sites).
Measures of BSAP, PICP, and NTX levels were determined for each patient through the course of therapy, for example, at 0, 1, 3, 6, 12, 21 and 24 months after the initiation of administration of parathyroid hormone. Parathyroid hormone treatment was discontinued after 17-23 months. The percent change (relative to the initial “0” month levels) for each marker was determined for each patient and is reported in the Figures. The overall changes observed in the 20 μg/day PTH-treated patient population, the 40 μg/day PTH-treated treated patient population, and the placebo patient population were determined by methods known to those of skill in the arts.

The subject of assay [2] is postmenopausal osteoporotic women. Description: GHAC efficacy trial (intent to treat BMD, fractures). The assay is classed as in vivo, human. To be noted: 20 μg/day, 21 months. The protocol:
as §1
Population pharmacodynamic analyses were undertaken to evaluate the time course of the relationships between efficacy measures and LY333334 dose or LY333334 concentrations. […] As a part of this assessment, a population placebo-response model describing the change in BMD in patients randomly assigned to placebo (supplemented with calcium and vitamin D) was first developed. […]

The mark [3] stands for this setting: about 5-6 weeks following termination, about 21-24 months after initiation.

The structures appear in SMILES notation.

For `CC[C@H](C)[C@H](NC(=O)[C@H](CCC(=O)O)NC(=O)[C@H](CO)NC(=O)[C@@H](NC(=O)[C@@H](N)CO)C(C)C)C(=O)N[C@@H](CCC(N)=O)C(=O)N[C@@H](CC(C)C)C(=O)N[C@@H](CCSC)C(=O)N[C@@H](Cc1cnc[nH]1)C(=O)N[C@@H](CC(N)=O)C(=O)N[C@@H](CC(C)C)C(=O)NCC(=O)N[C@@H](CCCCN)C(=O)N[C@@H](Cc1cnc[nH]1)C(=O)N[C@@H](CC(C)C)C(=O)N[C@@H](CC(N)=O)C(=O)N[C@@H](CO)C(=O)N[C@@H](CCSC)C(=O)N[C@@H](CCC(=O)O)C(=O)N[C@@H](CCCN=C(N)N)C(=O)N[C@H](C(=O)N[C@@H](CCC(=O)O)C(=O)N[C@@H](Cc1c[nH]c2ccccc12)C(=O)N[C@@H](CC(C)C)C(=O)N[C@@H](CCCN=C(N)N)C(=O)N[C@@H](CCCCN)C(=O)N[C@@H](CCCCN)C(=O)N[C@@H](CC(C)C)C(=O)N[C@@H](CCC(N)=O)C(=O)N[C@@H](CC(=O)O)C(=O)N[C@H](C(=O)N[C@@H](Cc1cnc[nH]1)C(=O)N[C@@H](CC(N)=O)C(=O)N[C@@H](Cc1ccccc1)C(=O)O)C(C)C)C(C)C` [LY333334], the “percent change in PICP serum levels during treatment” value in assay [1] (20 μg/day and 40 μg/day PTH, FIG. 2) is on record as “reached a peak within about one or two months”. Moreover, the “percent change in NTX urine levels during treatment” value in assay [1] (20 μg/day and 40 μg/day PTH, FIG. 3) is “increased steadily until about 12 months after treatment initiation”. Also, in assay [1] (setting [3]), the “BSAP level after termination of PTH treatment” value was “returned to a level at or slightly higher than placebo control levels” and the “PICP level after termination of PTH treatment” value was “returned to a level about the same as placebo controls”. The “percent change in NTX levels after termination of PTH treatment” value in assay [1] (about 21-24 months after initiation) is “declined and returned to levels similar to those observed in the placebo treated group”. In addition, in assay [2], the “actual increase in femoral neck BMD from intent to treat analyses” value is on record as 2.8% and the “actual increase in spine BMD from intent to treat analyses” value was 9.7%.
